In ChEMBL document CHEMBL1132074, “Potent and selective bicyclic lactam inhibitors of thrombin: Part 3: P1' modifications” (Bioorg Med Chem Lett, 1999):

Tests used:
Prothrombin = Prothrombin (Homo sapiens, UniProt P00734); test: Inhibition of human Thrombin
Serine protease 1 [1] = target: T1, Serine protease 1 (Homo sapiens, UniProt P07477); test: In vitro inhibitory activity against human trypsin
Serine protease 1 [2] = target: T1, Serine protease 1; test: In vitro inhibitory activity against human trypsin at 100 uM

T1 sequence (P07477 whole entry): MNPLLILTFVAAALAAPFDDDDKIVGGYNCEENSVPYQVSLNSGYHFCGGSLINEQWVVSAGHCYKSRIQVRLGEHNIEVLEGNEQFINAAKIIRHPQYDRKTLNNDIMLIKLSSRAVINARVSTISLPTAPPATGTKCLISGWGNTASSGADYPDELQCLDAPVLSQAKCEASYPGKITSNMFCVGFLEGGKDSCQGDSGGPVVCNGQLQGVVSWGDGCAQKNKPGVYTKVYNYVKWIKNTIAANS

Structure (SMILES)	IC50 (Prothrombin) [nM]	IC50 (Serine protease 1 [1]) [nM]	inhibition (Serine protease 1 [2]) [%]
Cn1ccnc1C(=O)[C@H](CCCNC(=N)N)NC(=O)[C@@H]1CC[C@H]2CN(C(=O)CCc3ccccc3)CC(=O)N21	2370	27400	–
NCCCC[C@H](NC(=O)[C@@H]1CC[C@H]2CN(C(=O)CCc3ccccc3)CC(=O)N21)C(=O)c1nccs1	77	14	–
Cc1nc(C(=O)[C@H](CCCN=C(N)N)NC(=O)[C@@H]2CC[C@H]3CN(C(=O)CCc4ccccc4)CC(=O)N32)sc1CCO	15	12	–
N=C(N)NCCC[C@H](NC(=O)[C@@H]1CC[C@H]2CN(C(=O)CCc3ccccc3)CC(=O)N21)C(=O)c1nccs1	–	< 1	–
N=C(N)NCCC[C@H](NC(=O)[C@@H]1CC[C@H]2CN(C(=O)CCc3ccccc3)CC(=O)N21)C(=O)c1nc2ccccc2s1	< 1	< 1	–
Cc1csc(C(=O)C(CCCNC(=N)N)NC(=O)[C@@H]2CC[C@H]3CN(C(=O)CCc4ccccc4)CC(=O)N32)n1 (some centres not stated)	44	24	–
N=C(N)c1cccc(CC(NC(=O)[C@@H]2CC[C@H]3CN(C(=O)CCc4ccccc4)CC(=O)N32)C(=O)c2nc3ccccc3s2)c1 (some centres not stated)	57	970	–
N=C(N)N1CCCC(C[C@H](NC(=O)[C@@H]2CC[C@H]3CN(C(=O)CCc4ccccc4)CC(=O)N32)C(=O)c2nc3ccccc3s2)C1 (some centres not stated)	< 1	590	–
N=C(N)NCCC[C@H](NC(=O)[C@@H]1CC[C@H]2CN(C(=O)CCc3ccccc3)CC(=O)N21)C(=O)c1nc2c(s1)CCC2	18	2	–
Cn1c(C(=O)[C@H](CCCNC(=N)N)NC(=O)[C@@H]2CC[C@H]3CN(C(=O)CCc4ccccc4)CC(=O)N32)nc2ccccc21	51	3360	–
N=C(N)NCCC[C@H](NC(=O)[C@@H]1CC[C@H]2CN(C(=O)CCc3ccccc3)CC(=O)N21)C(=O)c1ccccn1	340	160	–
Cn1c(C(=O)[C@H](CC2CCCN(C(=N)N)C2)NC(=O)[C@@H]2CC[C@H]3CN(C(=O)CCc4ccccc4)CC(=O)N32)nc2ccccc21 (some centres not stated)	750	–	40
Cn1c(C(=O)[C@H](CCCCN)NC(=O)[C@@H]2CC[C@H]3CN(C(=O)CCc4ccccc4)CC(=O)N32)nc2ccccc21	2050	8490	–
Cn1c(C(=O)[C@H](Cc2cccc(C(=N)N)c2)NC(=O)[C@@H]2CC[C@H]3CN(C(=O)CCc4ccccc4)CC(=O)N32)nc2ccccc21	450	18700	–
